# Data: ChEMBL document CHEMBL1154815, “3D QSAR studies on ketoamides of human cathepsin K inhibitors based on two different alignment methods” (Eur J Med Chem, 2010)
# Biological target: T1, Cathepsin K (Homo sapiens, UniProt P43235)
# T1 sequence (P43235 whole entry): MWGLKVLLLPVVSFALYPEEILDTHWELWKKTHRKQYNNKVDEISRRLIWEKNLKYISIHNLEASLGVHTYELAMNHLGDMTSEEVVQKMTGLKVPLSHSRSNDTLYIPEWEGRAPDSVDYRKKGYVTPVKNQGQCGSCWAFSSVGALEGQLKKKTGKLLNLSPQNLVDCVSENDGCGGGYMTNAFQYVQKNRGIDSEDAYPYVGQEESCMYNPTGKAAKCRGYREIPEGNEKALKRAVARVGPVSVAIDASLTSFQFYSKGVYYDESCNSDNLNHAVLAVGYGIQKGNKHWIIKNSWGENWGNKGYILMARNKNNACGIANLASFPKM
# Test: Inhibition of human cathepsin K
SMILES,IC50,pIC50
CCCC[C@H](NC(=O)O[C@@H]1CN(C(=O)c2ccc(-c3ccccc3)cc2)CC1(C)C)C(=O)C(=O)N[C@H](C)c1ccccc1,6.92 nM,–
CCCC[C@H](NC(=O)O[C@@H]1CN(C(=O)Oc2ccc3ccccc3c2)CC1(C)C)C(=O)C(=O)N[C@H](C)c1ccccc1,57.5 nM,–
CCCC[C@H](NC(=O)O[C@@H]1CN(C(=O)Oc2ccc(-c3ccccc3)cc2)CC1(C)C)C(=O)C(=O)N[C@H](C)c1ccccc1,5.01 nM,–
CCCC[C@H](NC(=O)O[C@@H]1CN(C(=O)OCc2ccc(-c3ccccc3)cc2)CC1(C)C)C(=O)C(=O)N[C@H](C)c1ccccc1,2.09 nM,–
CCCC[C@H](NC(=O)O[C@@H]1CN(C(=O)c2ccc3cc[nH]c3c2)CC1(C)C)C(=O)C(=O)N[C@H](C)c1ccccc1,1.7 nM,–
CCCC[C@H](NC(=O)O[C@@H]1CN(S(=O)(=O)Cc2ccccc2)CC1(C)C)C(=O)C(=O)N[C@H](C)c1ccccc1,17 nM,–
CCCC[C@H](NC(=O)O[C@@H]1CN(C(=O)NCc2ccccc2)CC1(C)C)C(=O)C(=O)N[C@H](C)c1ccccc1,3.8 nM,–
CCCC[C@H](NC(=O)O[C@@H]1CN(C(=O)c2c(C)noc2C)CC1(C)C)C(=O)C(=O)N[C@H](C)c1ccccc1,15.1 nM,–
CCCC[C@H](NC(=O)O[C@@H]1CN(C(=O)Nc2ccccc2)CC1(C)C)C(=O)C(=O)N[C@H](C)c1ccccc1,4.27 nM,–
CCCC[C@H](NC(=O)O[C@@H]1CN(C(=O)OCCc2ccccc2)CC1(C)C)C(=O)C(=O)N[C@H](C)c1ccccc1,32.4 nM,–
CCCC[C@H](NC(=O)O[C@@H]1CN(C(=O)c2cc3ccccc3s2)CC1(C)C)C(=O)C(=O)N[C@H](C)c1ccccc1,2.82 nM,–
CCCC[C@H](NC(=O)O[C@@H]1CN(C(=O)c2ccccc2)CC1(C)C)C(=O)C(=O)N[C@H](C)c1ccccc1,64.6 nM,–
CCCC[C@H](NC(=O)O[C@@H]1CN(S(=O)(=O)c2ccccc2)CC1(C)C)C(=O)C(=O)N[C@H](C)c1ccccc1,8.32 nM,–
CCCC[C@H](NC(=O)O[C@@H]1CN(C(=O)Cc2ccccc2)CC1(C)C)C(=O)C(=O)N[C@H](C)c1ccccc1,3.02 nM,–
CCCC[C@H](NC(=O)O[C@@H]1CN(C(=O)Oc2ccccc2)CC1(C)C)C(=O)C(=O)N[C@H](C)c1ccccc1,28.8 nM,–
CCCC[C@H](NC(=O)O[C@@H]1CN(C(=O)CCCc2ccccc2)CC1(C)C)C(=O)C(=O)N[C@H](C)c1ccccc1,26.9 nM,–
CCCC[C@H](NC(=O)O[C@@H]1CN(C(=O)NCCc2ccccc2)CC1(C)C)C(=O)C(=O)N[C@H](C)c1ccccc1,6.61 nM,–
CCCC[C@H](NC(=O)O[C@@H](Cc1nnc(-c2ccccc2)o1)C(C)C)C(=O)C(=O)N[C@H](C)c1ccccc1,0.832 nM,–
CCCC[C@H](NC(=O)O[C@@H]1CN(C(=O)c2ccc3ccccc3c2)CC1(C)C)C(=O)C(=O)N[C@H](C)c1ccccc1,1.58 nM,–
CCCC[C@H](NC(=O)O[C@H](Cc1nnc(-c2ccc(F)cc2)o1)C(C)(C)C)C(=O)C(=O)N[C@H]1CCCNC1=O,0.646 nM,–
CCCC[C@H](NC(=O)O[C@@H]1CN(Cc2ccccc2)CC1(C)C)C(=O)C(=O)N[C@H](C)c1ccccc1,20.9 nM,–
CCCC[C@H](NC(=O)O[C@@H]1CN(C(=O)c2ccno2)CC1(C)C)C(=O)C(=O)N[C@H](C)c1ccccc1,8.91 nM,–
CCCC[C@H](NC(=O)O[C@@H]1CN(C(=O)c2cccnc2)CC1(C)C)C(=O)C(=O)N[C@H](C)c1ccccc1,14.1 nM,–
CCCC[C@H](NC(=O)O[C@@H]1CN(C(=O)c2ccc(C(F)(F)F)cc2)CC1(C)C)C(=O)C(=O)Nc1cc[nH]n1,0.417 nM,–
CCCC[C@H](NC(=O)O[C@H](Cn1cc(-c2ccc(C(F)(F)F)cc2)cn1)C(C)(C)C)C(=O)C(=O)Nc1ccn[nH]1,0.0257 nM,–
CCCC[C@H](NC(=O)O[C@H](Cn1cnc(-c2ccc(C(F)(F)F)cc2)c1)C(C)(C)C)C(=O)C(=O)Nc1ccn[nH]1,–,10.6
